Experimental data: patent US7244557B2, “Method of screening modulators of Nod1 signaling” (Regents of the University of Michigan, priority 2003, dated 2007)

Target: T1, NOD1ΔLRR (Homo sapiens, UniProt Q9Y239)
T1 construct: pcDNA3-NOD1-ΔLRR(1–648)-FLAG; expressed in transfected cells; host or cells: HEK293T
T1 sequence (Q9Y239 1-648): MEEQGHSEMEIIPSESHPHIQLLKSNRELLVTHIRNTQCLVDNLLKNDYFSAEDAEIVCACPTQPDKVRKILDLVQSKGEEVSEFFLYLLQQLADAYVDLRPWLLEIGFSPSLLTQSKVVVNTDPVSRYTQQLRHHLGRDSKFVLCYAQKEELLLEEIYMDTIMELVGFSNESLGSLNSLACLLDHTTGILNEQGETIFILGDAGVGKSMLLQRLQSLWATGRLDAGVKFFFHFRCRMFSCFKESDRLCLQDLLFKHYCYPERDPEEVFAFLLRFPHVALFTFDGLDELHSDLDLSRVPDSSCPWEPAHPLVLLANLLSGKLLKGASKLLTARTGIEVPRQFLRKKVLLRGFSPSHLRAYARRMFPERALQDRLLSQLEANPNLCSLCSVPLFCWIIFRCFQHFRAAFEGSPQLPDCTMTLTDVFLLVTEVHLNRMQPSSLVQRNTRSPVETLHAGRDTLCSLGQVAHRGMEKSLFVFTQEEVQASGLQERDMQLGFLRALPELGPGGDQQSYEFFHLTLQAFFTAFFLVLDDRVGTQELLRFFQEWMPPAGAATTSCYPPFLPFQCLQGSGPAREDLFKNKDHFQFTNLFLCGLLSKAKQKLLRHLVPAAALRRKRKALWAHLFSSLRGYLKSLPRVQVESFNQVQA
Assay: NF-κB activation assay, cells expressing mutant NOD1 lacking LRRs
Assay type: cell-based
Experimental: A) Structure of purified PGN fraction from B. subtilis (GM3P) and synthetic PGN-related compounds used in the study. B) Structure of MDP and four copies of GlcNAc-MurNAc with attached L-Ala-γ-D-Gln (4 mer) are indicated by closed and dotted boxes, respectively. C) The ability of cells were transfected with 0.3 ng pcDNA3-NOD1-Flag, 0.1 ng pcDNA3-Nod2 (NOD2) or vector control and reporter pBxIV-luc and pEF-BOS-β-gal plasmids to activate NF-κB. D) The ability of synthetic peptides, iE-DAP and iQ-DAP to stimulate NF-κB activation in the presence of control vector (−) and plasmids encoding NOD1 wild-type, mutant NOD1 lacking LRRs (NOD1ΔLRR) and NOD2. E) The ability of iE-DAP, iQ-DAP and sBLP (1 μg/ml) to activate NF-κB.
Reagents. LPS from S. typhimurium, intact and alkaline-detoxified LPS from E. coli O55:B5 as well as purified lipid A preparations of E. coli F583, MDP, DAP and dsRNA were obtained from Sigma-Aldrich (St. Louis, Mo.). PGN from S. aureus was from Fluka-Chemie (Buchs, Germany). Palmitoyl-Cys ((RS)-2,3-di(palmitoyloxy)-propyl)-Ala-Gly) (sBLP), was obtained from Bachem (Torrance, Calif.). […] The amino acid composition of E. coli O55:B5 LPS was determined using AccQ·Tag amino acid analysis system (Waters, Milford, Mass.) after hydrolysis at 110° C. for 24 hr. […]

For “γ-D-glutamy-meso-diaminopimelic acid [iE-DAP]”, the “NF-κB activation by mutant NOD1 lacking the LRRs” value was “did not respond”.
